The subject of data set [1] is panel of 50 receptors, ion channels and transporters. The data set can be described thus: Selectivity binding panel of 50 receptors, ion channels and transporters (Eurofins). Particulars: at 10 μM; any receptor/transporter/ion channel other than the OX1R.
Procedure: These assays were performed by Eurofins (Celles L’Evescault, France).
The next data set concerns the target T1, rat OX1R (Rattus norvegicus, UniProt P56718).
T1 sequence (P56718 1-416): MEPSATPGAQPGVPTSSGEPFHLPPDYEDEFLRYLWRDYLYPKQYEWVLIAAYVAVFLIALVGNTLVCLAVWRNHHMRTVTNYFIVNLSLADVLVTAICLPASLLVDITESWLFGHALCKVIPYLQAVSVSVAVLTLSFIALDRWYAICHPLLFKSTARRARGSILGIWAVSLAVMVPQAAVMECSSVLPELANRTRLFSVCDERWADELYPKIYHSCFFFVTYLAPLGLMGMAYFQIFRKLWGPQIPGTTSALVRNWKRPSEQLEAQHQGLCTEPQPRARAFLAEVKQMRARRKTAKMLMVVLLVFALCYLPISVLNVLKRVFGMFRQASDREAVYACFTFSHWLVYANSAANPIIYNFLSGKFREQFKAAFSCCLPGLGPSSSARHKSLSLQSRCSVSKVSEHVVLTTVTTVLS
Nature of the data set: Calcium mobilization functional assay, HEK-293 cells, OX-A EC80.

In the next data set the target is T2, human OX1R (Homo sapiens, UniProt O43613).
T2 sequence (O43613 1-425): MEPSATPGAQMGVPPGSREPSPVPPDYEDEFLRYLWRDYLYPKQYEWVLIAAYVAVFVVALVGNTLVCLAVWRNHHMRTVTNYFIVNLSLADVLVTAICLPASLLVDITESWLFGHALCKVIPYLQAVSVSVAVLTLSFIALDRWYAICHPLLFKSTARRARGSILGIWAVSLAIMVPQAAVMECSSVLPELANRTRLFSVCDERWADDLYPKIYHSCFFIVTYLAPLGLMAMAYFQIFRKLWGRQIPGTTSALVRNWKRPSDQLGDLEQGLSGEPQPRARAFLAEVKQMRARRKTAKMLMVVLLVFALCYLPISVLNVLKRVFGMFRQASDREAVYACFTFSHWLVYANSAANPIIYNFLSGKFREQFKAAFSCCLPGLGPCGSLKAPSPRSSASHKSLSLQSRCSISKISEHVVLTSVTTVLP
Nature of the data set: Calcium mobilization functional assay, CHO-K1 cells, OX-A EC80.

For a further data set, the system named is Sprague-Dawley rats. The data set can be described thus: Sodium lactate panic provocation model (1-allyglycine treated rats). As to the method:
Experiments were performed in male Sprague-Dawley rats (300–350 g, Harlan Laboratory, Indianapolis, IN, United States). Prior to and during surgeries, rats were anesthetized with a nose cone connected to an isoflurane system (MGX Research Machine; Vetamic, Rossville, IN, United States). Radiotelemetry probes [Cat. no. HD-S11, Data Sciences International, St. Paul, MN, United States] were surgically implanted into the peritoneal cavity and sutured to the muscle wall in order to assess general motor activity. A pressure transducer was implanted into the femoral artery to assess cardiovascular responses [i.e., mean arterial blood pressure (MAP) and heart rate (HR)]. Rats were also fitted with femoral venous catheters for 0.5 M i.v. sodium lactate (NaLac) infusions, as previously described ([Shekhar et al., 1996]). After 3–5 days of recovery, rats were anesthetized and 26 gauge T-shaped cannulae (Cat. no. 3260PG, Plastics One, Inc., Roanoake, VA, United States) were directed at cardio-excitatory Perifornical hypothalamic area regions [([Shekhar and Keim, 1997]) bregma: 1.2 mm posterior, +2.1 mm lateral, +9.1 mm ventral and adjusted for approaching at a 10° angle toward the midline with the stereotaxic incisor bar elevated 5 mm above the interaural line] and cemented into place. The 22 gauge side arm was then attached, via PE-60 tubing, to an osmotic minipump (prefilled with 1-allyglycine solution chronically infused at 3.5 nmol/0.5 μl per hour) and sutured into place subcutaneously at the nape of the neck (DURECT Corporation, Model no. 2002).
Five days following 1-allyglycine infusion onset, in a counterbalanced design and with 48 h between crossover, rats were orally dosed with either JNJ-54717793 at 3, 10, or 30 mg/kg, or vehicle as a control group 60 min prior to the 15 min 0.5 M sodium lactate challenge. […] The data reported are changes in mean arterial blood pressure, HR, and activity from the average of the baseline (t-5 to t-1) from each rat.
Baseline SI testing was done 7–8 days following radiotelemetry surgery recovery, and repeated again 2–3 days later during drug treatment crossover. On experimental drug testing days, the SI test was performed 5 min after the offset of the sodium lactate challenge with different partners each time. The SI box dimension were 0.9 m long × 0.9 m wide × 0.3 m height. […] All behavioral tests were digitally videorecorded with a camera above the box. The “experimental” rat and an unfamiliar “partner” rat were both allowed to individually habituate to the box for a 5 min period 24 h prior to each SI test. During the SI test, the two rats were placed together in the center of the box, and the total duration (sec) of non-aggressive physical contact (grooming, sniffing, crawling over and under, etc.) initiated by the “experimental” rat is quantified over a 5 min duration. A baseline SI test was performed at least 72 h after i.v. catheterization, but prior to osmotic minipump implantation. Another SI test was performed 5 days following minipump infusions and immediately following saline or sodium lactate infusions. Video recorded sessions were scored at a later time by Stephanie D Fitz, whom was blind to any drug treatment.
Each dependent variable for assessment of behavior and radiotelemetry data was respectively analyzed using a one way ANOVA, or a one way ANOVA with repeated measures with drug treatment as the main factor and time as repeated measures. In the presence of significant main effects post hoc tests were conducted using a parametric Fisher’s LSD test. Within subjects time effects were also assessed using a Dunnett’s one way analysis with the minute prior to the i.v infusion used as the control.

Setting [2] is: rats, after sodium lactate challenge.

Procedure for human OX1R: (§1) Stably transfected CHO-K1 cells for the human OX1R or HEK-293 cells for the rat OX1R were used for the in vitro functional assays. […] Since the intracellular calcium response is transient and not consistent with equilibrium assumptions, the assays were performed by giving a standard, EC80 dose of the OX agonist and calculating a pKB from inhibition of the agonist response by a dose range of the antagonists. The cells were plated in black 96 well tissue culture plates with clear bottoms at 50,000 cells/well and grown overnight at 37°C in 5% carbon dioxide (CO2). […] The cell plate was then transferred to the Molecular Devices Fluorometric Imaging Plate Reader (FLIPR) Tetra instrument, which adds the OX agonist and monitors changes in fluorescence which reflect intracellular calcium levels.
(§2) Results were calculated using GraphPad Prism (San Diego, CA, United States) software. Raw data from the FLIPR Tetra was exported as the difference between maximum and minimum fluorescence observed for each well. A non-linear regression was used to determine the agonist EC50 and antagonist IC50 for each plate, then the antagonist KB was calculated according to Cheng and Prusoff ([Cheng and Prusoff, 1973]).
Procedure for rat OX1R: as §1, §2

Turning to `O=C(c1cccc(F)c1-c1ncccn1)N1[C@@H]2CC[C@H]1[C@H](Nc1cnc(C(F)(F)F)cn1)C2` [JNJ-54717793, (1S,2R,4R)-7-([(3-fluoro-2-pyrimidin-2-ylphenyl)carbonyl]-N-[5-(trifluoromethyl)pyrazin-2-yl]-7-azabicyclo[2.2.1]heptan-2-amine)], in data set [1], the “inhibition in selectivity panel” value is below 50%. Besides, at rat OX1R, the Kb is 35.5 nM. At human OX1R, the Kb was 16.6 nM. For the same molecule, the “sodium lactate-induced pressor response (MAP)” value in the data set with Sprague-Dawley rats (rats, 10 mg/kg p.o., t3 timepoint, no overall treatment effect) is “attenuation of pressor response”. Moreover, the “sodium lactate-induced tachycardia (HR)” value with Sprague-Dawley rats (rats, 3, 10, 30 mg/kg p.o., compared to vehicle) is given as “did not attenuate”. The locomotion entry in the data set on Sprague-Dawley rats (rats, 3, 10, 30 mg/kg p.o., sodium lactate did not increase locomotion) was “did not significantly alter”. Also, in the data set on Sprague-Dawley rats (setting [2]), the “center or middle times in the open field test” value was “Nor was there an effect” and the “sedative effects (line crossings) in the open field test” value is reported as “no apparent sedative effects”. Further, the “sodium lactate-induced anxiety behavior in the SI test” value in the data set with Sprague-Dawley rats (rats, highest dose (30 mg/kg p.o.)) was “attenuate/block”.
